In ChEMBL document CHEMBL1201862, “PubChem BioAssay data set” (2004):
Calls of active or inactive are those of the source.

How the values were obtained:
Procathepsin L = Procathepsin L (Homo sapiens, UniProt P07711); test: cathepsin L inhibitors, dose response, counter-screen for M1/M17 aminopeptidase inhibitor project, biochemical, QFRET, 1536-well (AID 2214)
Aspartyl aminopeptidase = target: T1, Aspartyl aminopeptidase (Plasmodium falciparum 3D7, UniProt Q8I2J3); test: Counterscreen for inhibitors of M1 and M17 aminopeptidases: QFRET-based biochemical high throughput dose response assay for inhibitors of the Plasmodium falciparum M18 Aspartyl Aminopeptidase (PFM18AAP). [Related PubChem assays: 1619 (Screening assay (M17LAP inhibitors).), 1445 (Screening assay (M1AAP inhibitors).)]
T1 sequence (Q8I2J3 whole entry): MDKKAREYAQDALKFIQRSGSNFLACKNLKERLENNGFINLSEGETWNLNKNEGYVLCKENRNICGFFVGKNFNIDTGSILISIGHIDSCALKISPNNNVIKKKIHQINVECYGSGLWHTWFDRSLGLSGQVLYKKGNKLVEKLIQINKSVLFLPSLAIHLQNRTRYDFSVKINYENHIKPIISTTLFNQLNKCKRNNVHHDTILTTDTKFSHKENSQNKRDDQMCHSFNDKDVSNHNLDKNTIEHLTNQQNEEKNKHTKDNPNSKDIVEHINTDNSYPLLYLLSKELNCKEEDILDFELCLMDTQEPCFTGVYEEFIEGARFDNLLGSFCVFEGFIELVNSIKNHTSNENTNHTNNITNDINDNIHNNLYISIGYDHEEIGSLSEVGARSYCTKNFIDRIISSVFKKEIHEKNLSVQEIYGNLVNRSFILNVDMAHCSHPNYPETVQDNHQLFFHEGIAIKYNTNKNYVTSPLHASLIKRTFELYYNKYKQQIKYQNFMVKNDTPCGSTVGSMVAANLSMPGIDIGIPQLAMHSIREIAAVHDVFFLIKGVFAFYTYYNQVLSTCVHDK

Leucine aminopeptidase = target: T2, Leucine aminopeptidase (Plasmodium falciparum 3D7, UniProt Q8IL11); test: P. falciparum M17LAP inhibitors, primary screen, biochemical, fluorogenic H-Leu-NHMec substrate, 1536-well (AID 1619); format: functional
T2 sequence (Q8IL11 whole entry): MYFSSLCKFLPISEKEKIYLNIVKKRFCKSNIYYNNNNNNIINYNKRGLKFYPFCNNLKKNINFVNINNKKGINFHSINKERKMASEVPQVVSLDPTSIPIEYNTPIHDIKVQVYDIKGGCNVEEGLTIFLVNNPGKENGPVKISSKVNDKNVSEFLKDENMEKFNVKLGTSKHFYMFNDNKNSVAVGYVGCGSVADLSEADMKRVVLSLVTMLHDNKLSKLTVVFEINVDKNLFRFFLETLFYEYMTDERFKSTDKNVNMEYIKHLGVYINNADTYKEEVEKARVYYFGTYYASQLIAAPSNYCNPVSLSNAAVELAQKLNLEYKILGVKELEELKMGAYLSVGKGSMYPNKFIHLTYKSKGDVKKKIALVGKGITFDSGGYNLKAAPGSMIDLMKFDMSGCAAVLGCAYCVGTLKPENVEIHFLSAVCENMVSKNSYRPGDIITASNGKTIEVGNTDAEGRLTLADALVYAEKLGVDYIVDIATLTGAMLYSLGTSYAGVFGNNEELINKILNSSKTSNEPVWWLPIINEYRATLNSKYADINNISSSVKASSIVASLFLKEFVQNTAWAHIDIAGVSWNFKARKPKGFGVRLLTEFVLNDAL

[1] = target: T3, Corticotropin-releasing factor receptor 2/Corticotropin-releasing factor-binding protein (Homo sapiens, UniProt P24387+Q13324); test: activators of CRF receptor 2 with binding protein – uHTS hits, confirmation (AID 602473); format: functional; details: read-out: EC50_Mean
T3 sequence (Q13324 whole entry): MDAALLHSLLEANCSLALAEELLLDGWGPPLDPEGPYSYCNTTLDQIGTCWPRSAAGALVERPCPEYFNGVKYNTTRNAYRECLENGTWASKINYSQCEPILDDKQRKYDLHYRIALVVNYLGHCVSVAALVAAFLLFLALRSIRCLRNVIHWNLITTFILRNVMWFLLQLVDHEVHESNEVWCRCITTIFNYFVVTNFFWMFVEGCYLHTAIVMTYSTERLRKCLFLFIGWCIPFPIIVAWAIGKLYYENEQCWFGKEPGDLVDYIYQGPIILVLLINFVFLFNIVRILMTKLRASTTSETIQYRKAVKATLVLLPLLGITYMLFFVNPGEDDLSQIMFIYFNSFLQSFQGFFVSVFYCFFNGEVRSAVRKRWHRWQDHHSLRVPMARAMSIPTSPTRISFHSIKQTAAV
T3 sequence (P24387 whole entry): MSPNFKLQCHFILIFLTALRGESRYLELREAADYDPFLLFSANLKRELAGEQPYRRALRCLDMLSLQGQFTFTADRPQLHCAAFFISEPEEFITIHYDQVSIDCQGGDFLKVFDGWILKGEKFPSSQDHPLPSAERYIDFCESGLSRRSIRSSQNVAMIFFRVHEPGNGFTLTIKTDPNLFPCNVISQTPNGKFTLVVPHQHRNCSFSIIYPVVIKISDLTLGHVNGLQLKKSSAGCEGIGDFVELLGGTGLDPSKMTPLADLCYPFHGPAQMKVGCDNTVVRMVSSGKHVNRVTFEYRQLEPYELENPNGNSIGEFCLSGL

[2] = Luminescence Cell-Based Dose Confirmation HTS to Identify Inhibitors of Polyadenylation.; format: functional
Vero [3] = test: host cell cytotoxicity of antiviral hits, dose response, cytotoxicity control for West Nile virus antiviral project, secondary assay (AID 1650); format: functional; details: Chlorocebus sabaeus
Vero [4] = test: cells; format: functional, cell-based; details: Chlorocebus sabaeus
[5] = target: T4, Replicative DNA helicase DnaB (Mycobacterium tuberculosis, UniProt P9WMR3); test: DnaB intein splicing inhibitors, dose response, biochemical, cell-free fluorescence (AID 449749); format: functional
T4 sequence (P9WMR3 whole entry): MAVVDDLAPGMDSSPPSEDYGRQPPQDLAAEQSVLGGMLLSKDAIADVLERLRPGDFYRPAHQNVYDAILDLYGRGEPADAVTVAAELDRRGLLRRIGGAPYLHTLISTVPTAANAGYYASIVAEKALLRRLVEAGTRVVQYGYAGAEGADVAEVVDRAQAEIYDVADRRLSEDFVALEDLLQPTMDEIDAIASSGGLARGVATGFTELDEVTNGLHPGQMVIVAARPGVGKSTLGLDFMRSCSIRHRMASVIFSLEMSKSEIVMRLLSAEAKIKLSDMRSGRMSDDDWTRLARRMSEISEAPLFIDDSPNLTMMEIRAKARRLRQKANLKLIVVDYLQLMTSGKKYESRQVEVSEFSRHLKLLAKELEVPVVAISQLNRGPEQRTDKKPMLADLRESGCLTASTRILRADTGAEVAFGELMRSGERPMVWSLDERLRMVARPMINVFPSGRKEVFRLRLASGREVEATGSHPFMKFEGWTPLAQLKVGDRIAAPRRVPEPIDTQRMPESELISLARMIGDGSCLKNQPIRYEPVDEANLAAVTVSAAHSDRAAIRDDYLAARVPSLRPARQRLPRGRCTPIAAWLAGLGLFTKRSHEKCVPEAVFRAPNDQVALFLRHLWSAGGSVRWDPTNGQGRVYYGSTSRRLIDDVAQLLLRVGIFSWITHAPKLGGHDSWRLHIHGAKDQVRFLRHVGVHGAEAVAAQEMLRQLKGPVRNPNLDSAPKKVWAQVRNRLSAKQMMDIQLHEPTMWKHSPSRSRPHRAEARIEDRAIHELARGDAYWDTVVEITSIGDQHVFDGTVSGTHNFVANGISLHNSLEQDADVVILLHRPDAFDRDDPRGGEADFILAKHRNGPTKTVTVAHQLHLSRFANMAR

Vero [6] = test: cells; format: functional; details: Chlorocebus sabaeus
[7] = target: T5, Heat shock factor protein 1 (Mus musculus, UniProt P38532); test: HSF1 potentiators in luciferase reporter cells, confirmation, cell-based, NIH3T3, luminescence, dose retest (AID 435004); format: functional;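 note: stress induced by proteasome inhibitor MG132 added 30 min after compound; luciferase reporter driven by HSF1 response element in NIH3T3 cells; actives raise luminescence as potentiators of the MG132 stress response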
T5 sequence (P38532 whole entry): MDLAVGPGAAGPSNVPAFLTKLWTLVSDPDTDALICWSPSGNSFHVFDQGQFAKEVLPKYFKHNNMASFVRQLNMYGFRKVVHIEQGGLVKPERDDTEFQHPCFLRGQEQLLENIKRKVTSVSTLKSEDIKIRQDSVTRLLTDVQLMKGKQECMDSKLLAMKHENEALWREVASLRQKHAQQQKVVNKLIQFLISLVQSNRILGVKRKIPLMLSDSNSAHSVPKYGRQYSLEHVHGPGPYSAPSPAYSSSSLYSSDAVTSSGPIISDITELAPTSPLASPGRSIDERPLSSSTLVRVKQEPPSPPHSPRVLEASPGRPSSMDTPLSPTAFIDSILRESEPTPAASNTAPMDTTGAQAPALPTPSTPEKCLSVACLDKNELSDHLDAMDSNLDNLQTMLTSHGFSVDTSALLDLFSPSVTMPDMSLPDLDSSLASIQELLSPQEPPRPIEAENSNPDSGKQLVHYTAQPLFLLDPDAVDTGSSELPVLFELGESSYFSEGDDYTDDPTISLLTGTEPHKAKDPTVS

Protein RecA = target: T6, Protein RecA (Mycobacterium tuberculosis, UniProt P9WHJ3); test: Fluorescence Cell-Free Homogeneous Dose Retest to Identify Inhibitors of RecA-Intein Splicing Activity. [Related pubchem assays (depositor defined):AID2097, AID2223, AID489010, AID492950]; format: functional
T6 sequence (P9WHJ3 whole entry): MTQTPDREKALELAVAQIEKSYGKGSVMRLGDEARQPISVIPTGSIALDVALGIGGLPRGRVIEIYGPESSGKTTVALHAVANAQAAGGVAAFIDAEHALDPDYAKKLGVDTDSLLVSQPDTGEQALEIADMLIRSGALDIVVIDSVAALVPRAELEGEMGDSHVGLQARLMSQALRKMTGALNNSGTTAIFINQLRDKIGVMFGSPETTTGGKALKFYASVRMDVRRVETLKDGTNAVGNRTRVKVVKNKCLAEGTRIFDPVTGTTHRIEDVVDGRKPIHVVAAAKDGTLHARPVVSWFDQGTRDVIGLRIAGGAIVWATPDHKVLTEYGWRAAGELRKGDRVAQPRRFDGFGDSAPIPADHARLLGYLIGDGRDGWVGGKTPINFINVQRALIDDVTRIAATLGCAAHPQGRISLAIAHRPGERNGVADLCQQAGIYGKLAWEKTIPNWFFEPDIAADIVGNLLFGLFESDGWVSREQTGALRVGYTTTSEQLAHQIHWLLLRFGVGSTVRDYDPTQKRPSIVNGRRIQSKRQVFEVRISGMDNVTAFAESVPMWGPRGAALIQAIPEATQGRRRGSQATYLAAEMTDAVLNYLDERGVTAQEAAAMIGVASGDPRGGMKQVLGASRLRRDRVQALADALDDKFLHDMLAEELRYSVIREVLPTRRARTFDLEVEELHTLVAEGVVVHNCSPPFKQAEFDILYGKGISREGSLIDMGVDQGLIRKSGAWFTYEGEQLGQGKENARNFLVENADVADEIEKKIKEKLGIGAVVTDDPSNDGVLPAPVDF

Chain of Procathepsin L (P07711 whole entry): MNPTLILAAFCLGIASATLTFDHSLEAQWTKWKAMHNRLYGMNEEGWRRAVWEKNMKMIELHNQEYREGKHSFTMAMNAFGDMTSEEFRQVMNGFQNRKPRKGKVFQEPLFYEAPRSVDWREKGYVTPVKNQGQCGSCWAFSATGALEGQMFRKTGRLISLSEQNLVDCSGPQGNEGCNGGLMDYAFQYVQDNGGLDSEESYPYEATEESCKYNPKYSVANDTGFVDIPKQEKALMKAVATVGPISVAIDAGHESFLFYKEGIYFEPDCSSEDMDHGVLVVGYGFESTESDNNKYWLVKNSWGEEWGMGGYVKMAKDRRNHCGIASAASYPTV

| Structure (SMILES) | IC50 (Procathepsin L) | IC50 (Aspartyl aminopeptidase) | IC50 (Leucine aminopeptidase) | EC50 [2] | further results |
| --- | --- | --- | --- | --- | --- |
| CCc1cc2ccc(C)cc2nc1SCC(=O)Nc1cc(OC)c(OC)cc1C(=O)O | > 59.6 µM (not active) | > 73.5 µM (not active) | < 1 µM (active) | – | – |
| C/C(=C\C=C(C#N)C#N)c1cc(C#N)c(N)o1 | – | – | – | 11.1 µM (active) | EC50 [1]: 5.13 µM (active) |
| Cc1ccccc1NC(=O)C(=Cc1ccc(C(=O)O)cc1)C(=O)Nc1ccccc1C | – | – | – | – | CC50 (Vero [3]): 7.39 µM (active); IC50 (Vero [4]): > 25 µM (active); AC50 [5]: 3.66 µM (active); CC50 (Vero [6]): 14.7 µM (active); EC50 [7]: 29 µM (active); EC50 (Protein RecA): 5.08 µM (active) |
| CCCCCCCCCCCC(=O)N/N=C/c1ccco1 | – | – | – | > 120 µM (not active) | – |
| COC(=O)c1c(NC(=O)C2CC=CCC2C(=O)O)sc(C)c1C (stereo not given) | > 59.6 µM (not active) | > 73.5 µM (not active) | 4.32 µM (active) | – | – |
